Data from patent US20250387371A1, “COMPOSITIONS AND FORMULATION METHODS FOR SUSTAINED LOCAL RELEASE OF ANTIFIBROTICS” (THE HOPKINS UNIVERISTY, priority 2022, published 2025).
≈ marks a conversion by molar mass, not a printed value. Like-named read-outs stand apart in the source and are kept apart here.

Experiments:
[1] = tested on: human primary colonic fibroblasts (CCD-18Co) activated with TGF-β; assay: High throughput microscopy-based drug screening (α-SMA and COL1A1 immunocytochemistry); format: cell-based; conditions: TGF-β-activated CCD-18Co, 4 mM
Description: To identify potential antifibrotic agents, a high-throughput microscope-based drug screening approach using human primary colonic fibroblasts (CCD-18Co) activated with transforming growth factor-β (TGF-β) was used. A panel of 1,586 FDA-approved small molecule drugs were then screened for their ability to reduce expression of α-SMA and type 1 collagen (COL1A1) as assessed by fluorescent immunocytochemistry. Based on its known antifibrotic effects, pirfenidone was included in this screen and found effective at a dose of 4 mM (FIG. 1A).
Human primary colonic fibroblasts (CCD-18Co) were seeded in 96 well flat bottom plate. Twenty-four hours later, cells were washed and starved with alpha-MEM medium without FBS for 24 h. The cells were then washed and the media was replaced with alpha-MEM supplemented with 10% FBS containing 5 ng/ml TGF-β and activated for 48 h. The cells were then washed again and fresh medium containing 5 ng/ml TGF-β and 10 μM of a drug from a library of 1,586 FDA approved small molecules was applied to the cells. After 4 days, the cells were fixed with 10% neutral formalin for 15 min and permeabilized with 0.5% Triton X-100 in PBS. […] Images were analyzed with Image J2 Fiji (NIH, Bethesda, MD) to determine the drug treatment efficacy as assessed by reduction in the intensity of α-SMA and collagen staining per cell. […]

CCD-18Co cells [2] = assay: RT-PCR of α-SMA (ACTA2) expression in activated CCD-18Co cells; format: cell-based, human
Experimental: (§1) RNA was extracted using TRIzol Reagent as previously described. Li et al., 2017. RNAs were reverse transcribed into cDNA with ReverAid First Strand cDNA synthesis kit. SYBR Green PCR Master Mix kit was utilized for the real time PCR using a QuantStudio 3 PCR machine (Applied Biosystems, Waltham, MA). Primers used are detailed in Table 6. Each reaction was performed in triplicate for each primer with a no-template negative control. QuantStudio Design and Analysis Software 1.5.2 was used to analyze the data using the ΔΔCT method.

LX2 cells = assay: RT-PCR of α-SMA (ACTA2) expression in activated LX2 cells; format: cell-based, human; conditions: activated LX-2
Experimental: as §1

[3] = tested on: bleomycin-induced mouse skin fibrosis model; assay: Bleomycin-induced skin fibrosis model; format: in vivo; conditions: 4 weeks
Experimental: There is a paucity of animal models of GI tract fibrosis/strictures. Li et al., 2021. To obtain preliminary evidence regarding efficacy of Sul-NC as antifibrotic in vivo, a well-described and reproducible bleomycin-induced rodent skin fibrosis model was used. Yamamoto et al., 1999. To induce fibrosis, bleomycin was injected in mouse skin at five spots within a 1×1 cm region on the back every other day for four weeks (FIG. 3), as previously described. Yamamoto et al., 1999. […] In addition, the Masson's Trichrome staining confirmed that the thickness of the dermis was due to deposition of collagen and other ECM proteins (blue staining in the figure). Of note, there was a striking difference between the dose and frequency of administration when comparing pirfenidone (daily dosing, total dose 2,800 mg/kg) vs Sul-NC (once weekly, total dose 200 mg/kg).
5-8 week old male C57BL/6J mice were utilized for bleomycin induced skin fibrosis model. The upper back was shaved, and 100 μL bleomycin (0.5 mg/ml in PBS) was injected subcutaneously every other day into one of five sectors in a defined 1-cm^2 area (see FIG. 3). […] Five representative images for each mouse were taken to quantify skin dermal thickness. For each image, five different areas were measured by a masked observer with image J Fiji (NIH, Bethesda, MD). Data were analyzed with GraphPad Prism 9 (San Diego, CA, USA).

[4] = tested on: small intestine fibrosis mouse model; assay: Mouse intestine transplant fibrosis model; format: in vivo; conditions: three times daily oral 100 mg/kg for 7 days
Experimental: An intestine transplantation model (FIG. 6) that was previously used to validate the antifibrotic efficacy of oral pirfenidone was employed. Meier et al., 2016. Sul-NC at a dose of 50 mg/kg or 150 mg/kg was given as a single injection at the site of the transplant and compared to oral pirfenidone at the dose previously described to be effective in the model, three times daily oral dosing with 100 mg/kg. […] Again, there was a striking difference between the dose and frequency of administration when comparing pirfenidone (three times daily dosing, total dose 2,100 mg/kg) vs Sul-NC (single dose, 50 mg/kg).
5-8 week old male C57BL/6J mice were utilized in an intestine transplantation model with minor modifications (FIG. 6). Meier et al., 2016. Briefly, a 6-cm segment of small intestine proximal to the ileocecal valve was excised from a donor mouse in a sterilized biosafety cabinet. The tissue was washed with cold saline 3 times, and carefully cut into 1 cm segments that were placed in a petri dish with cold saline. The back neck of the recipient mice was shaved. […] Four representative images were taken for each tissue to quantify the collagen thickness. For each image, 10 different areas were measured by a masked observer with image J Fiji (NIH, Bethesda, MD). Data were analyzed with GraphPad Prism 9 (San Diego, CA, USA).

CCD-18Co cells [5] = assay: Western blot of α-SMA and COL1A1 in activated CCD-18Co cells; format: cell-based, human; conditions: 10 μM, 96 h
Experimental: (§2) LX2 and CCD-18Co were seeded in 6 well plate. Twenty-four hours later, cells were washed and starved with Alpha MEM medium without FBS for 24 h. The cells were then washed and the media was replaced with Alpha MEM supplemented with 10% FBS containing 5 ng/ml TGF-β and activated for 48 h. […] The cells were then washed three times with cold PBS and treated with protein lysis RIPA buffer with complete protease inhibitor cocktail. Protein concentration was determined with Pierce BCA protein Assay Kit. 20 μg of total protein lysate from each treatment group was loaded into each well of a Mini-Protean TGX gel (4-15%), and electrophoresis was performed using 1× Tris/Glycine/SDS Buffer. Proteins were then transferred to nitrocellulose membranes using 1× Tris/Glycine with methanol. Membranes were blocked with Intercept (TBS) blocking buffer for 1 h at room temperature and then incubated with anti-α-SMA antibody (1:1000), and COL1A1 antibody (1:1000) at 4° C. overnight. Membranes were washed with TBS-0.1% Tween three times for 10 min each, and then incubated in IRDye-Secondary antibodies (1:10,000) at room temperature for 1 h. The membranes were then washed with TBS-0.1% Tween three times for 10 min each and rinsed with 1×TBS to remove residual Tween20. Membranes were then scanned with an Odyssey Image System (Li-Cor, Lincoln, NE, USA).

[6] = tested on: human hepatic stellate cells (LX2); assay: Western blot of α-SMA and COL1A1 in activated LX2 cells; format: cell-based; conditions: activated LX2, 10 μM, 96 h
Experimental: as §2

[7] = In vitro drug release under accelerated conditions (rapid equilibrium dialysis); format: physicochemical
Experimental: Sul-NC (5 mg/mL, 50 μL) were placed in a rapid equilibrium dialysis s(RED) device with an 8 kDa molecular weight cutoff (n=3). The outer reservoir was filled with 1 mL of 0.5% Tween 80 in phosphate buffered saline (PBS-T) solution. The samples were incubated on an orbital shaker with temperature control at 37° C. and 300 rpm. Every 24 h, 1 mL of the solution was collected and replenished with fresh 1 mL PBS-T solution. […] Mobile phase A was water containing 0.1% trifluoroacetic acid (TFA) and mobile phase B was acetonitrile containing 0.1% TFA. The isocratic flow was composed 70% of mobile phase A and 30% mobile phase B at 1 mL/min flow rate for 10 min. […] The drug amount was quantified and used to calculate the accumulation percentage. The release curves were plotted with GraphPad Prism 9 (San Diego, CA).

physchem = format: physicochemical
[8] = mouse, in vivo, sc, 50 mg/kg
Experimental: Each treatment group contain 3-9 mice. […] MTD was injected and blood were taken for liver and kidney function test (Table 5).

C57BL/6J mice = conditions: both, mouse, in vivo; for Survival: ip
in vivo = conditions: both, C57BL/6J, mouse, sc
[9] = topical dosing; cited from earlier work

**Q.** For `Cc1ccc(=O)n(-c2ccccc2)c1` [pirfenidone], which “decrease in the staining of α-SMA and COL1A1” value [1] is on record?
**A.** effective

**Q.** And the “concentration below which no effect on ACTA2 expression was shown” value (CCD-18Co cells [2])?
**A.** 4 mM

**Q.** And the “concentration below which no effect on ACTA2 expression was shown” value (LX2 cells)?
**A.** 4 mM

**Q.** And the “thickness of the dermis compared to Vehicle” value ([3]; daily oral 100 mg/kg)?
**A.** significantly reduced

**Q.** What about the collagen layer thickness [4] of the same compound?
**A.** 9.1±0.3 μm

**Q.** Which results are given for `Clc1ccc(CSC(Cn2ccnc2)c2ccc(Cl)cc2Cl)cc1` (centres unmarked) [sulconazole]?
**A.** protein production of α-SMA and COL1A1 (Western blot) (CCD-18Co cells [5]): significantly reduced; protein production of α-SMA and COL1A1 (Western blot) [6]: significantly reduced; passage of free drug through the dialysis membrane [7]: not impeded by the dialysis membrane; solubility (physchem): 240 µg/mL (≈ 603 µM); blood level of ALT and BUN [8]: increased; thickness of the dermis compared to Vehicle ([3]; 10-mg/kg IP every other day): significantly reduced; dose resulting in reduced survival (C57BL/6J mice): 50 mg/kg; Survival (C57BL/6J mice; 15 mg/kg): 5/5 (100%); Survival (C57BL/6J mice; 30 mg/kg): 5/5 (100%); Survival (C57BL/6J mice; 40 mg/kg): 5/5 (100%); MTD (in vivo): 50 mg/kg; elimination via the feces [9]: one of the primary clearance routes
